Experimental data reported in paper PMC6271988, “New Potentially Active Pyrazinamide Derivatives Synthesized Under Microwave Conditions” (Molecules, 2014).

Legend:
[1] = system: PET in spinach chloroplasts; experiment: Photosynthetic electron transport (PET) inhibition, DCPIP photoreduction; format: biochemical, Spinacia oleracea L.; conditions: for IC50: DCPIP photoreduction
Procedure: The inhibition of photosynthetic electron transport (PET) in spinach chloroplasts was determined spectrophotometrically (Genesys 6, Thermo Scientific, Madison, WI, USA) using an artificial electron acceptor 2,6-dichlorophenol-indophenol (DCPIP). The rate of photosynthetic electron transport was monitored as a photoreduction of DCPIP. Chloroplasts were prepared from Spinacia oleracea L.. The measurements were carried out in phosphate buffer (0.02 mol/L, pH 7.2) containing sucrose (0.4 mol/L), MgCl2 (0.005 mol/L) and NaCl (0.015 mol/L). The chlorophyll concentration was 30 mg/L and the samples were irradiated (~100 W/m^2 with 10 cm distance) with a halogen lamp (250 W). […] The studied compound were dissolved in DMSO due to their limited water solubility. […] The efficiency of studied compounds was expressed as 50% inhibition concentration relative to the untreated control. The standard for these measurements was DCMU (Diurone®).

[2] = Lipophilicity HPLC determination (logk); format: physicochemical; conditions: HPLC capacity factor, C18, MeOH 70%/H2O 30%, 30 °C
Trichosporon asahii 1188 = experiment: Antifungal evaluation, microdilution broth method; format: cell-based; conditions: Trichosporon asahii, 1188, TA
Procedure: (§1) Antifungal evaluation was also accomplished with microdilution broth method. On the contrary, there was used RPMI 1640 broth with glutamine as medium and conditions were humid and dark atmosphere, pH 7.0 (adjusted with 0.165 M morpholinepropanesulfonic acid, MOPS) and 35 °C. 8 fungal strains were used (Candida albicans ATCC 44859, Candida tropicalis 156, Candida krusei E28, Candida glabrata 20/I, Trichosporon asahii 1188, Aspergillus fumigatus 231, Lichtheimia corymbifera 272, Trichophyton mentagrophytes 445) together with four antimycotic standards amphotericin B, voriconazole, nystatin and fluconazole.

[3] = system: Lichtheimia corymbifera 272; experiment: Antifungal evaluation, microdilution broth method; format: cell-based; conditions: Lichtheimia corymbifera, 272, LC
Procedure: as §1

[4] = system: Aspergillus fumigatus 231; experiment: Antifungal evaluation, microdilution broth method; format: cell-based; conditions: Aspergillus fumigatus, 231, AF
Procedure: as §1

[5] = system: Trichophyton mentagrophytes 445; experiment: Antifungal evaluation, microdilution broth method; format: cell-based; conditions: Trichophyton mentagrophytes, 445, TM
Procedure: as §1

Candida glabrata 20/I = experiment: Antifungal evaluation, microdilution broth method; format: cell-based; conditions: Nakaseomyces glabratus, 20/I, CG
Procedure: as §1

[6] = system: Candida albicans ATCC 44859; experiment: Antifungal evaluation, microdilution broth method; format: cell-based; conditions: Candida albicans, ATCC44859, CA
Procedure: as §1

Candida krusei E28 = experiment: Antifungal evaluation, microdilution broth method; format: cell-based; conditions: Pichia kudriavzevii, E28, CK
Procedure: as §1

Candida tropicalis 156 = experiment: Antifungal evaluation, microdilution broth method; format: cell-based; conditions: Candida tropicalis, 156, CT
Procedure: as §1

[7] = system: spectrum of fungi tested (8 fungal strains); experiment: Antifungal evaluation, summary over the fungi tested; format: cell-based; conditions: fungi tested, less active than the standards; read-out: IC80 antifungal
Procedure: as §1

[8] = system: Staphylococcus epidermidis; experiment: Antibacterial in vitro screening, microdilution broth method; format: cell-based; conditions: 80% inhibition of control

Row | Molecule | PET inhibition (result in words) [1] | logk [2] | IC50 [1] [µM] | further results
1 | 3-(Piperidin-1-ylamino)pyrazine-2-carboxamide [Compound 15] | did not inhibit PET | −0.2333 |  | 
2 | 3-(Pyrrolidin-1-ylamino)pyrazine-2-carboxamide [Compound 14] | did not inhibit PET | −0.4889 |  | 
3 | C[C@@H]1[C@H](O)[C@@H](C)/C=C/C=C/C=C/C=C/C=C/C=C/C=C/[C@H](O[C@@H]2O[C@H](C)[C@@H](O)[C@H](N)[C@@H]2O)C[C@@H]2O[C@](O)(C[C@@H](O)C[C@@H](O)[C@H](O)CC[C@@H](O)C[C@@H](O)CC(=O)O[C@H]1C)C[C@H](O)[C@H]2C(=O)O [AMP, amphotericin B] |  |  |  | IC80 (Trichosporon asahii 1188; 24 h): 0.49 µM; IC80 (Trichosporon asahii 1188; 48 h): 0.98 µM; IC80 ([3]; 24 h): 7.81 µM; IC80 ([3]; 48 h): 7.81 µM; IC80 ([4]; 24 h): 1.95 µM; IC80 ([4]; 48 h): 1.95 µM; IC80 ([5]; 72 h): 1.95 µM; IC80 ([5]; 120 h): 1.95 µM; IC80 (Candida glabrata 20/I; 24 h): 0.98 µM; IC80 (Candida glabrata 20/I; 48 h): 1.95 µM; IC80 ([6]; 24 h): 0.12 µM; IC80 ([6]; 48 h): 0.49 µM; IC80 (Candida krusei E28; 24 h): 1.95 µM; IC80 (Candida krusei E28; 48 h): 1.95 µM; IC80 (Candida tropicalis 156; 24 h): 1.95 µM; IC80 (Candida tropicalis 156; 48 h): 1.95 µM
4 | CNc1nccnc1C(N)=O [Compound 1, 3-(Methylamino)pyrazine-2-carboxamide] | did not inhibit PET | −0.4028 |  | 
5 | CCNc1nccnc1C(N)=O [Compound 2, 3-(Ethylamino)pyrazine-2-carboxamide] | did not inhibit PET | −0.2014 |  | 
6 | CCCNc1nccnc1C(N)=O [Compound 3, 3-(Propylamino)pyrazine-2-carboxamide] |  | 0.0038 | 1590 | 
7 | CCCCNc1nccnc1C(N)=O [Compound 4, 3-(Butylamino)pyrazine-2-carboxamide] |  | 0.2287 | 203 | IC80 [7]: ≥ 250 µM
8 | CCCCCNc1nccnc1C(N)=O [Compound 5, 3-(Pentylamino)pyrazine-2-carboxamide] |  | 0.4563 | 38.6 | IC80 [7]: ≥ 250 µM; IC80 [8]: < 250 µM
9 | CCC(C)(C)Nc1nccnc1C(N)=O [Compound 6, 3-(tert-Pentylamino)pyrazine-2-carboxamide] |  | 0.5468 | 480 | 
10 | CCCCCCCNc1nccnc1C(N)=O [Compound 8, 3-(Heptylamino)pyrazine-2-carboxamide] |  | 0.9198 |  | IC80 [7]: ≥ 250 µM
11 | CCCCCCCCNc1nccnc1C(N)=O [Compound 9, 3-(Octylamino)pyrazine-2-carboxamide] |  | 1.1533 | 14.3 | 
12 | CCCCN(CCCC)c1nccnc1C(N)=O [Compound 10, 3-(Dibutylamino)pyrazine-2-carboxamide] | did not inhibit PET | 0.5197 |  | 
